Patent US20230338386A1, “DPP-IV INHIBITOR COMBINED WITH A FURTHER ANTIDIABETIC AGENT, TABLETS COMPRISING SUCH FORMULATIONS, THEIR USE AND PROCESS FOR THEIR PREPARATION” (Boehringer Ingelheim International GmbH, priority 2008, published 2023)

Experiment: Stability of FDC dosage forms (in words)
Assay type: physicochemical
Conditions: after 6 months storage at accelerated conditions; effect seems concentration dependent

suppression of degradation of BI 1356 free base in FDC combinations with metformin HCl: able to suppress degradation
Structure (SMILES): N=C(N)NCCC[C@H](N)C(=O)O [L-arginine]
